{"source": "patent US5057414A", "about": "“Method for the determination of the activity of serine proteases or serine protease inhibitors” (Behringwerke Aktiengesellschaft, priority 1987, dated 1991)", "key": {"PAI/u-PA complex": {"tested_on": "PAI/u-PA complex", "test": "Comparison Experiment 3: stability of the PAI/u-PA complex against chloramine T", "format": "biochemical", "description": "(§1) 50 μl of various samples, namely either basic buffer A (1) or PAI-deficient plasma (2) and PAI-rich plasma (3) 20 were incubated with 200 μl of solution C (plasminogen activator reagent) at 23° C. for 10 min. After addition of 500 μl of solution A (basic buffer), 50 μl of chloramine T of various concentrations, 300 μl of solution E (plasmin substrate reagent) and 100 μl of solution F (plasminogen reagent), the mixtures were incubated at 37° C. for 15 min. Substrate conversion was stopped by addition of 100 μl of 8.5 M acetic acid, and the extinction at 405 nm was determined. The oxidizing agent chloramine T used in this experiment was employed in solutions of the following concentrations."}, "urokinase": {"tested_on": "urokinase", "test": "Comparison Experiment 3: stability of urokinase against chloramine T in the pure buffer system", "format": "biochemical", "description": "as §1"}, "u-PA/PAI complexes": {"tested_on": "u-PA/PAI complexes", "test": "Comparison Experiments 5 and 7: stability of u-PA/PAI complexes in the functional PAI determination", "format": "biochemical", "conditions": "in the reaction mixture; Comparison Experiment 5", "description": "(§2) Preincubation of 50 μl of sample with 200 μl of a variant of solution C (plasminogen activator dissolved in basic buffer U) at 37° C. for five minutes was followed by addition of 200 μl of a variant of plasminogen reagent (F), composed of 100 mM Tris-HCl pH 8.4, crosslinked polypeptides 1%, ^R Triton×100 0.1%, 100 mM NaCl without tran-examic acid, NaN3 0.01 % (basic buffer U) with 10 CTA-U/ml plasminogen and 200 μl of distilled water with 10 mM chloramine T, 3 mM tranexamic acid to the reaction mixture. The mixture was incubated at 37° C. for 5 min, and 500 μl of 0.6 mM chromogenic plasmin substrate HD-Nva-CHA-Lys-pNA in 480 mM NaCl (or, as a substitute, 200 mM CsCl) were added. The resultant linear change in extinction, delta A/min, at 405 nm was followed. The values found for normal plasma were about 0.2/min.\nThe chloramine T concentrations added in the determination method specified in Example 3 were varied from 0 to 9 mmol/1 of reaction mixture. The assayed samples were either a) deficient in functional PAI (=PAI-deficientplasma) or b) rich in functional PAI. An optimum of generated plasmin activity is found on addition of between 1 and 4 mmol/1 chloramine T. The two plasma plots are parallel throughout the range, i.e. u-PA/PAI complexes are stable up to at least 9 mM chloramine T in the reaction mixture (=650 1). […]"}, "plasmin": {"tested_on": "plasmin", "test": "Comparison Experiment 11: effect of chloramine T and/or tranexamic acid on plasmin activity in the functional PAI assay", "format": "biochemical", "conditions": "for delta A/4 min: 405 nm", "description": "as §2, with “followed.” for “followed. The values found for normal plasma were about 0.2/min.”"}, "[1]": {"tested_on": "antithrombin III (AT III)", "test": "Comparison Experiment 13: oxidative inactivation of antithrombin III", "format": "biochemical", "conditions": "37° C., 15 min preincubation, pH 8.8", "description": "50 pmol of AT III in 50 μl of 50 mM Tris, 100 mM NaCl, 0.1% (w/v) Triton×100, pH 8.8 buffer, are preincubated with increasing quantities of chloramine T or hydrogen peroxide in 50 μl of distilled water at 37° C. for 15 min. Then 3 pmol of human alpha-thrombin, 2.5 IU of heparin and 2 KIU of aprotinin in 500 μl of 100 mM Tris, 150 mM NaCl, pH 8.2, are added, and the mixture is incubated at 37° C. for 5 min. Addition of 500 μl of 0.4 mM H-D-CHA-But-ArgpNA was followed by further incubation for 3 min (37° C.). The reaction was stopped by 100 μl of 8.5 M acetic acid, and the change in extinction at 405 nm was determined."}, "human alpha-thrombin": {"tested_on": "human alpha-thrombin", "test": "Comparison Experiment 13: oxidation resistance of thrombin", "format": "biochemical", "conditions": "500 nmol of chloramine T or 500 times the dose of H202"}, "[2]": {"tested_on": "Plasmin/antiplasmin complexes", "test": "Comparison Experiment 14b: stability of plasmin/antiplasmin complexes to chloramine T", "format": "biochemical", "conditions": "in the reaction mixture, 37° C., 30 min", "description": "30 pmol of alpha2 -antiplasmin and basic buffer A (control mixture) are incubated with 50 pmol of plasmin in 175 μl of basic buffer A for 5 min (37° C.). Addition of 500 μl of chloramine T of various concentrations in basic buffer A is followed by incubation for 30 min (37° C.), and the detection reaction is started by addition of 200 μl of 2.5 mM chromogenic plasmin substrate H-D-Phe-Tyr-Arg-ANBA in basic buffer A. After 3 min (37° C.), the reaction is stopped by addition of 100 μl of 8.5 M acetic acid, and the change in extinction at 405 nm is determined. No additional plasmin activity is generated even by chloramine T concentrations above 5 mM in the reaction mixture, that is to say plasmin/antiplasmin complexes are oxidation-resistant."}, "[3]": {"tested_on": "plasminogen activator inhibitors", "conditions": "Lawrence and Loskutoff, Biochemistry 25, 6351-6355, 1986; cited from earlier work"}}}
{"smiles": "Cc1ccc(S(=O)(=O)NCl)cc1", "note": "[chloramine T, Chloramine T]", "values": [{"measurement": "chloramine T concentration at which the PAI/u-PA complex is stable (FIG. 3)", "setting": "PAI/u-PA complex", "value": "above 2 mmol/1"}, {"measurement": "chloramine T concentration not resulting in cleavage of the PAI/u-PA complexes", "setting": "PAI/u-PA complex; PAI-deficient vs PAI-rich plasma, in reaction mixture", "value": "above 2 mM"}, {"measurement": "chloramine T concentration attacking urokinase", "setting": "urokinase", "value": 1, "unit": "mM"}, {"measurement": "chloramine T concentration up to which u-PA/PAI complexes are stable", "setting": "u-PA/PAI complexes", "value": "at least 9 mM"}, {"measurement": "increase in plasmin activity with alpha2-antiplasmin-deficient plasma compared with normal plasma", "setting": "plasmin", "value": 20, "unit": "%"}, {"measurement": "delta A/4 min", "setting": "plasmin; Normal plasma without alpha2-antiplasmin", "value": 271, "unit": "mA"}, {"measurement": "delta A/4 min", "setting": "plasmin; Normal plasma", "value": 225, "unit": "mA"}, {"measurement": "quantity of chloramine T inactivating 50 pmol of AT III", "setting": "[1]", "value": 500, "unit": "nmol"}, {"measurement": "activity of thrombin at the dose inactivating AT III", "setting": "human alpha-thrombin", "value": "without the activity of thrombin being impaired"}, {"measurement": "chloramine T concentration generating no additional plasmin activity", "setting": "[2]", "value": "above 5 mM"}, {"measurement": "concentration inactivating plasminogen activator inhibitors", "setting": "[3]", "value": "about 10 μM"}]}
